Results as given in patent publication US8124605B2, “Compositions and methods for modulating a kinase cascade” (Kinex Pharmaceuticals, LLC, priority 2007, dated 2012).

What was measured:
Type in all cases: cell-based
JAK3 = target: T1, JAK3 (Homo sapiens, UniProt P52333); test: JAK phosphorylation/activation by flow cytometry, pSTAT5 staining in IL-4 stimulated U-937 cells; details: drug 30 min, then IL-4
T1 construct: U-937 cells, histiocytic lymphoma cell line; endogenous in cells; host or cells: U-937 (ATCC CRL-1593.2)
T1 sequence (P52333 1-1124): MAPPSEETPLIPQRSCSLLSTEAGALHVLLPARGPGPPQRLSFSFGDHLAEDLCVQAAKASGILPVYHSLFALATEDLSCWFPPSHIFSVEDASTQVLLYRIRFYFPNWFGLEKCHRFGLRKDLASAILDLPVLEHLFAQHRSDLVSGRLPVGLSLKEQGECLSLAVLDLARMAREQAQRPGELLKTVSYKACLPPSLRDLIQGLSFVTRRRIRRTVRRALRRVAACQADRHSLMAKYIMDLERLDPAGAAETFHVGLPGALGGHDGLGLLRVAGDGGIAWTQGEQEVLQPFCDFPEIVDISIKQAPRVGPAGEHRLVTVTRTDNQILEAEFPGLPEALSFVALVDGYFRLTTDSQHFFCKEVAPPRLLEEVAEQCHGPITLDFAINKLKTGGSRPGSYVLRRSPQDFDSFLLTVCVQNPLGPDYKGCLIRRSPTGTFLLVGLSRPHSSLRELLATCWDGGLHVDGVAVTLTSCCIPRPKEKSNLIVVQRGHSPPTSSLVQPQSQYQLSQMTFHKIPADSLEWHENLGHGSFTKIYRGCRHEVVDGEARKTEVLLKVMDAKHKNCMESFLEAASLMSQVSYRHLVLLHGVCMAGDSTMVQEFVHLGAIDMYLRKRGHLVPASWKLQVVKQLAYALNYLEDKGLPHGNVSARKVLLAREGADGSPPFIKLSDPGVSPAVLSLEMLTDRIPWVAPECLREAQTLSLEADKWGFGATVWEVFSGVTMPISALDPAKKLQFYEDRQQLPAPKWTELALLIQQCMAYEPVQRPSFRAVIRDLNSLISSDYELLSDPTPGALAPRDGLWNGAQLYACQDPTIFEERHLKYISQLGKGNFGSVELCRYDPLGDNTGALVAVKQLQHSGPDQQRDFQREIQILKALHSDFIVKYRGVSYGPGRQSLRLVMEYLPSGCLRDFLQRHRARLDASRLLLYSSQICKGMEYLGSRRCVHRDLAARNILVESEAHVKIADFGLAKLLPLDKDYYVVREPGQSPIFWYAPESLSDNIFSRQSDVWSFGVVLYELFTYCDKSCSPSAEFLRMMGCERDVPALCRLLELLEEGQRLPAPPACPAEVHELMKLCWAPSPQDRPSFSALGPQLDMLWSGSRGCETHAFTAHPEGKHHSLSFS
Description: (§1) The protocol used to analyze the effect of compounds of the invention on JAK phosphorylation/activation is adapted from: Krutzik and Nolan, Cytometry Part A 55A:61-70 (2003).
(§2) Briefly, U-937 cells, histiocytic lymphoma cell line; ATCC No. CRL-1593.2, were treated with compounds of the invention or commercial JAK inhibitors. Cells were then stimulated with IL-4, to engage the JAK/STAT signaling pathway. Cells were fixed with formaldehyde to “freeze” the phosphorylation states of intracellular proteins. Cells were next permeabilized, and stained with mAbs directed against the phosphorylated STAT (pSTAT) proteins. The positive shift in fluorescence due to pSTAT staining serves as a surrogate to JAK phosphorylation/activation: no flow cytometric mAbs specific to JAKs exist, so the proximal downstream signaling event, STAT phosphorylation, is measured. A decrease in fluorescence, due to drug incubation prior to IL-4 stimulation, is an indirect indication of JAK inhibition. The following antibodies were used: apSTAT5-PE: monoclonal antibody to the intracellular STAT5a protein phosphorylated at Tyrosine 694; conjugated to the fluorochrome phycoerythrin (PE); BD No. 612567 and apSTAT6-Alex647: monoclonal antibody to the intracellular STAT6 protein phosphorylated at Tyrosine 641; conjugated to the fluorochrome Alexa Fluor 647; BD No. 612601. The detailed protocol is described below:
(§3) Resuspend U-937 cells @ 8×10^5 cells/mL in complete culture medium (RPMI-1640/10% FBS).
(§4) Add 0.5 mL cell suspension to each well of 24-well tissue culture plate.
(§5) Add drug treatment (compounds, controls) for 30 min @ 37° C., 5% CO2.
(§6) Add cytokine/growth factor to stimulate; 15-30 min @ 37° C. (1 μL/0.5 mL cell suspension; IL-4, IL-2, IL-15=20 ng/mL)
(§7) Transfer cells to 5 mL Flow tubes.
(§8) Add 16% Formaldehyde directly to cell culture to obtain final concentration of 1.5% formaldehyde. (47 μL formaldehyde+0.5 mL cell culture)
(§9) Incubate cells in fixative for 15 min @ 37° C., 5% CO2.
(§10) Add 3 mL cold “Staining Media” (PBS/1% BSA) to each tube; centrifuge cells @ 1100 RPM, 3 min. Discard supernatant.
(§11) Resuspend cells with vigorous vortexing in 200 μL ice-cold Methanol.
(§12) Incubate cells on ice, 30 min.
(§13) Wash cells twice in 2 mL “Staining Medium” (centrifuge cells @ 1100 RPM, 3 min). Discard supernatant.
(§14) Add 8 μL of fluorophore-conjugated, phosphoprotein-specific mAbs to cells. Incubate cells at RT, 60 min, in the dark.
(§15) Wash cells with 4 mL Staining Media. Centrifuge cells @ 1100 RPM, 3 min. Discard supernatant.
(§16) Resuspend cells in 350 μL Staining Media.
(§17) Acquire cellular events on BD FACSCalibur cytometer.

SYF/c-Src527F cell line = test: Cell proliferation assay (MTT assay), GI50; details: Mus musculus, 72 h, 3 days incubation
Description: (§18) The GI50s for several of the compounds of the invention are assayed as described herein.
(§19) Cell line and culture media—the human colon tumor cell line HT-29 was obtained from Dr. Irwin Gelman (Roswell Park Cancer Institute, Buffalo, N.Y.) and maintained in McCoy's 5A medium supplemented with 2% fetal bovine serum and penicillin-streptomycin. SYF/c-Src527F cell line was also obtained from Dr. Irwin Gelman and maintained in Dulbecco's modified Eagle's medium (DMEM) supplemented with 2% bovine serum and penicillin-streptomycin. Both cell lines were incubated in an atmosphere containing 5% CO2 at 37° C.
(§20) Cell proliferation assay (MTT assay)-HT-29 (7,000 cells) and SYF/c-Src527F (4,000 cells) cells were plated in 120 μl of culture medium per well of 96-well plate. Cells were incubated overnight before drug treatment. Test compounds were diluted in culture medium in a separate 96-well plate to yield 10× concentrations of test dose (50 nM, 500 nM, 5 μM, 50 μM, and 500 μM). 13.3 μl of the 10× compound was added to each well of cells to achieve the final test concentrations (5 nM, 50 nM, 500 nM, 5 μM and 50 μM). After 3 days incubation, 10 μl of MTT (Thiazolyl Blue Tetrazolium Bromide, 5 mg/ml in PBS) was added to each well and incubate for 3 hours at 37° C. After removal of culture medium, 100 μl of isopropanol containing 40 mM HCl was added to each well and incubate for 10 minutes on a shaker to dissolve the MTT formazan. Optical density (OD) at 570 nm was then measured using microplate reader and cell growth inhibition (percentage of growth) by each concentration of drug was calculated as: % growth=100×[(T−T0)/(C−T0)] (T: OD of the test well exposure to test drug; C: OD of the control well without drug treatment; T0: OD at time zero). Growth inhibition curves and GI50 were determined using GraphPad Prism 5 statistical software.

[1] = system: human colon tumor cell line HT-29; test: Cell proliferation assay (MTT assay), GI50; details: HT-29, 72 h, 3 days incubation, read-out: GI50 HT29
Description: as §18, §19, §20

JAK1 = target: T2, JAK1 (Homo sapiens, UniProt P23458); test: JAK phosphorylation/activation by flow cytometry, pSTAT6 staining in IL-4 stimulated U-937 cells; details: drug 30 min, then IL-4
T2 construct: U-937 cells, histiocytic lymphoma cell line; endogenous in cells; host or cells: U-937 (ATCC CRL-1593.2)
Description: as §1, §2, §3, §4, §5, §6, §7, §8, §9, §10, §11, §12, §13, §14, §15, §16, §17

T2 sequence (P23458 whole entry): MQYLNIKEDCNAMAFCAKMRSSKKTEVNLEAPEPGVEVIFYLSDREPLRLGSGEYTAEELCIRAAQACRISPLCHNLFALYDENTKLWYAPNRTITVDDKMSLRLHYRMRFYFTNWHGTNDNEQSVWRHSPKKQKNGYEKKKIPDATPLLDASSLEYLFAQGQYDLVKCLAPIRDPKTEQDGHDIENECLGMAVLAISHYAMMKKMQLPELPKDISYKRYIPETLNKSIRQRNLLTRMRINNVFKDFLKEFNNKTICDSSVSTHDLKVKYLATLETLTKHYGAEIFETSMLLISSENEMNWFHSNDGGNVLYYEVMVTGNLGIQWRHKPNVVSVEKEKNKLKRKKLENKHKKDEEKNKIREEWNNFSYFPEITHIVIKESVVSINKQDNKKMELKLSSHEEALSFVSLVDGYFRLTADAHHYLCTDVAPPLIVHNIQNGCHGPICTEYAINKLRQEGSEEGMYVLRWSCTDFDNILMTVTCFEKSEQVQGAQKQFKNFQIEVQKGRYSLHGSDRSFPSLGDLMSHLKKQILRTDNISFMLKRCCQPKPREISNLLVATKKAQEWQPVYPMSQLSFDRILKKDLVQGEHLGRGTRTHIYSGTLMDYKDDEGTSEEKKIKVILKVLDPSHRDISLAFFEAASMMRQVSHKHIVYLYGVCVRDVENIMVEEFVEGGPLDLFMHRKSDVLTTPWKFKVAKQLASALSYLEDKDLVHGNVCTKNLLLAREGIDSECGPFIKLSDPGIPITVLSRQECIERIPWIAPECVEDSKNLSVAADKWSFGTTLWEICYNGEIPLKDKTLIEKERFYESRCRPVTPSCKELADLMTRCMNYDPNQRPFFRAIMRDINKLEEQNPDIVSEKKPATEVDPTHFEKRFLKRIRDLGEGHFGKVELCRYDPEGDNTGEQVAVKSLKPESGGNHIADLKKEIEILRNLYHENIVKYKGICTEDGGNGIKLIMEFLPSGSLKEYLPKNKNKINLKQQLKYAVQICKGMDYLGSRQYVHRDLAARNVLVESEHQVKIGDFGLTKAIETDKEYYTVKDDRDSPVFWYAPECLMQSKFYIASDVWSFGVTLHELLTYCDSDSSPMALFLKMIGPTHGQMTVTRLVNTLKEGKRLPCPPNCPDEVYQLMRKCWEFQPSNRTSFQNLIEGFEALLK

Row | Structure (SMILES) | JAK3 pStat5-PE Signal (JAK3) | JAK3 pStat5-PE Signal/Background (JAK3) | GI50 (SYF/c-Src527F cell line) | GI50 [1] | JAK1 pStat6-Alexa647 Signal (JAK1) | JAK1 pStat6-Alexa647 Signal/Background (JAK1)
1 | O=C(Cc1ccccc1)NCc1ccc(-c2ccccc2)cn1 [Compound 140] | 3.02 | 1.14 | 11.8 µM | 2.1 µM | 13.76 | 3.62
2 | O=C(Cc1ccc(-c2ccc(OCCN3CCOCC3)cc2)cn1)NCc1ccccc1 [Control B] | 3.42 | 1.17 | – | – | 19.03 | 4.55
3 | O=C(CCc1ccccc1)Cc1ccc(-c2ccccc2)cn1 [Compound 150] | 3.36 | 1.27 | 20.8 µM | 5.7 µM | 14.48 | 3.81
4 | O=S(=O)(Cc1ccc(Br)cc1)NCc1ccc(-c2ccccc2)cc1 [Compound 134] | 3.66 | 1.25 | 4.9 µM | 5.6 µM | 21.47 | 5.14
5 | O=S(=O)(Cc1ccc(-c2ccccc2)cc1)NCc1ccccc1 [Compound 138] | 4.10 | 1.40 | 1.4 µM | 13.9 µM | 28.65 | 6.85
6 | COc1cc2ncnc(Nc3ccc(O)cc3)c2cc1OC [WHI-P131] | 3.19 | 1.09 | – | – | 33.80 | 8.09
7 | O=C(Cc1ccccc1)NCc1ccc(-c2ccccc2)cc1 [Compound 125] | 4.58 | 1.56 | 0.75 µM | 0.46 µM | 29.48 | 7.05
8 | O=C(Cc1ccc(-c2ccc(OCCN3CCOCC3)cc2)cn1)NCc1ccccc1 [drawing 587] | – | – | 0.023 µM | 0.026 µM | – | –
9 | O=S(=O)(CCc1ccccc1)Cc1ccc(-c2ccccc2)cc1 [Compound 139] | 4.41 | 1.51 | 2.2 µM | 2.9 µM | 25.08 | 6.00
